Measurements reported in publication PMC7377239, “Cardiovascular Effects of Polychlorinated Biphenyls and Their Major Metabolites” (Environmental Health Perspectives, 2020).
Counter-ions that a name gives are not always drawn. Like-named read-outs stand apart in the source and are kept apart here.

Legend:
HUVECs [1] = test: High-content imaging cytotoxicity in HUVECs, 24 h; type: cell-based, human; conditions: Homo sapiens, HUVEC, 24 h, HUVECs; for viability at 0.01 µM / activity at 0.01 µM / viability at 0.1 µM / activity at 0.1 µM / viability at 1 µM / activity at 1 µM / viability at 10 µM / activity at 10 µM / viability at 100 µM / activity at 100 µM: 0.00 µM = 100.00; for viability at 0.1 µM / activity at 0.1 µM: 0.10 µM; for minimal effective concentration: top concentration 100.00 µM
Method in brief: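 HUVECs (passages 1–5) grown to monolayer over 3–5 d, then exposed 24 h at 37°C, 5% CO2; stained with Hoechst 33342, MitoTracker Orange and calcein AM and imaged at 10×. Readouts normalized to 0.5% DMSO vehicle, four-parameter logistic fit; POD at one-SD cutoff, 100μM assigned when no response.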

HUVECs [2] = test: Tube formation (tubulogenesis) assay in HUVECs, 18 h; type: cell-based, human; conditions: Homo sapiens, HUVEC, 18 h, HUVECs; for activity at 0.1 µM: 0.10 µM; for minimal effective concentration: top concentration 100.00 µM
Method in brief: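 HUVECs (passage 1–5) seeded on reduced-growth-factor basement membrane and exposed to compounds overnight at 37°C, 5% CO2, in 2× maintenance medium with 12.5 ng/mL VEGF; 0.5% DMSO vehicle. Calcein AM-stained tube networks imaged and analysed; vehicle-normalized readouts fit to four-parameter logistic, POD set at one SD of vehicle means.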

[3] = 24 hr, read-out: huvec.cyto.24hr
[4] = 24 hr, read-out: huvec.mito.24hr
[5] = 24 hr, read-out: huvec.mitoint.24hr
[6] = 24 hr, read-out: huvec.nma.24hr
[7] = 24 hr, read-out: huvec.cyto.24hr POD
[8] = 24 hr, read-out: huvec.mito.24hr POD
[9] = 24 hr, read-out: huvec.mitoint.24hr POD
[10] = 24 hr, read-out: huvec.nma.24hr POD
[11] = 24 hrs, read-out: huvec.tc.24hrs
[12] = 24 hrs, read-out: huvec.tc.24hrs POD
[13] = 0.00 µM = 100.00, read-out: huvec.mtl.18hr
[14] = 0.00 µM = 100.00, read-out: huvec.tlps.18hr
[15] = 0.00 µM = 100.00, read-out: huvec.tta.18hr
[16] = 0.00 µM = 100.00, read-out: huvec.ttl.18hr

SMILES: Oc1cc(Cl)c(-c2cc(Cl)ccc2Cl)cc1Cl [4-OH PCB52]
- viability at 0.01 µM (HUVECs [1]; [3]): 94.4%
- activity at 0.01 µM (HUVECs [1]; [4]): 93.5%
- activity at 0.01 µM (HUVECs [1]; [5]): 103%
- activity at 0.01 µM (HUVECs [1]; [6]): 98.9%
- viability at 0.1 µM (HUVECs [1]; [3]): 120%
- activity at 0.1 µM (HUVECs [1]; [4]): 118%
- activity at 0.1 µM (HUVECs [1]; [5]): 104%
- activity at 0.1 µM (HUVECs [1]; [6]): 94.5%
- viability at 1 µM (HUVECs [1]; [3]): 93.9%
- activity at 1 µM (HUVECs [1]; [4]): 93.9%
- activity at 1 µM (HUVECs [1]; [5]): 111%
- activity at 1 µM (HUVECs [1]; [6]): 98%
- viability at 10 µM (HUVECs [1]; [3]): 46.9%
- activity at 10 µM (HUVECs [1]; [4]): 33.2%
- activity at 10 µM (HUVECs [1]; [5]): 15.3%
- activity at 10 µM (HUVECs [1]; [6]): 61.6%
- viability at 100 µM (HUVECs [1]; [3]): 72%
- activity at 100 µM (HUVECs [1]; [4]): 0.65%
- activity at 100 µM (HUVECs [1]; [5]): 5.52%
- activity at 100 µM (HUVECs [1]; [6]): 119%
- minimal effective concentration (HUVECs [1]; [7]): 1 µM
- minimal effective concentration (HUVECs [1]; [8]): 1.1 µM
- minimal effective concentration (HUVECs [1]; [9]): 2.32 µM
- minimal effective concentration (HUVECs [1]; [10]): 100 µM
- viability at 0.01 µM (HUVECs [1]; [11]): 94.4%
- viability at 0.1 µM (HUVECs [1]; [11]): 120%
- viability at 1 µM (HUVECs [1]; [11]): 93.9%
- viability at 10 µM (HUVECs [1]; [11]): 46.9%
- viability at 100 µM (HUVECs [1]; [11]): 77.5%
- minimal effective concentration (HUVECs [1]; [12]): 1 µM
- activity at 0.01 µM (HUVECs [2]; [13]): 112%
- activity at 0.01 µM (HUVECs [2]; [14]): 103%
- activity at 0.01 µM (HUVECs [2]; [15]): 129%
- activity at 0.01 µM (HUVECs [2]; [16]): 112%
- activity at 0.1 µM (HUVECs [2]; [13]): 98.5%
- activity at 0.1 µM (HUVECs [2]; [14]): 96.7%
- activity at 0.1 µM (HUVECs [2]; [15]): 107%
- activity at 0.1 µM (HUVECs [2]; [16]): 98.2%
- activity at 1 µM (HUVECs [2]; [13]): 94%
- activity at 1 µM (HUVECs [2]; [14]): 92.4%
- activity at 1 µM (HUVECs [2]; [15]): 123%
- activity at 1 µM (HUVECs [2]; [16]): 110%
- activity at 10 µM (HUVECs [2]; [13]): 91.1%
- activity at 10 µM (HUVECs [2]; [14]): 77.1%
- activity at 10 µM (HUVECs [2]; [15]): 98.5%
- activity at 10 µM (HUVECs [2]; [16]): 87.2%
- activity at 100 µM (HUVECs [2]; [13]): 69.6%
- activity at 100 µM (HUVECs [2]; [14]): 35.6%
- activity at 100 µM (HUVECs [2]; [15]): 168%
- activity at 100 µM (HUVECs [2]; [16]): 163%
- minimal effective concentration (HUVECs [2]; read-out: huvec.mtl.18hr POD): 8.34 µM
- minimal effective concentration (HUVECs [2]; read-out: huvec.tlps.18hr POD): 4.13 µM
- minimal effective concentration (HUVECs [2]; read-out: huvec.tta.18hr POD): 51.8 µM
- minimal effective concentration (HUVECs [2]; read-out: huvec.ttl.18hr POD): 62.1 µM

SMILES: O=S(=O)(O)Oc1cc(Cl)ccc1-c1ccccc1 [2-yl PCB 3 sulfate]
- viability at 0.01 µM (HUVECs [1]; [3]): 95%
- activity at 0.01 µM (HUVECs [1]; [4]): 93.7%
- activity at 0.01 µM (HUVECs [1]; [5]): 96.9%
- activity at 0.01 µM (HUVECs [1]; [6]): 100%
- viability at 0.1 µM (HUVECs [1]; [3]): 105%
- activity at 0.1 µM (HUVECs [1]; [4]): 105%
- activity at 0.1 µM (HUVECs [1]; [5]): 103%
- activity at 0.1 µM (HUVECs [1]; [6]): 95.3%
- viability at 1 µM (HUVECs [1]; [3]): 95%
- activity at 1 µM (HUVECs [1]; [4]): 94.6%
- activity at 1 µM (HUVECs [1]; [5]): 92.6%
- activity at 1 µM (HUVECs [1]; [6]): 95.4%
- viability at 10 µM (HUVECs [1]; [3]): 83.5%
- activity at 10 µM (HUVECs [1]; [4]): 83.3%
- activity at 10 µM (HUVECs [1]; [5]): 97.9%
- activity at 10 µM (HUVECs [1]; [6]): 97.9%
- viability at 100 µM (HUVECs [1]; [3]): 93%
- activity at 100 µM (HUVECs [1]; [4]): 92.1%
- activity at 100 µM (HUVECs [1]; [5]): 93.3%
- activity at 100 µM (HUVECs [1]; [6]): 96%
- minimal effective concentration (HUVECs [1]; [7]): 100 µM
- minimal effective concentration (HUVECs [1]; [8]): 100 µM
- minimal effective concentration (HUVECs [1]; [9]): 100 µM
- minimal effective concentration (HUVECs [1]; [10]): 100 µM
- viability at 0.01 µM (HUVECs [1]; [11]): 95%
- viability at 0.1 µM (HUVECs [1]; [11]): 105%
- viability at 1 µM (HUVECs [1]; [11]): 95%
- viability at 10 µM (HUVECs [1]; [11]): 83.5%
- viability at 100 µM (HUVECs [1]; [11]): 93%
- minimal effective concentration (HUVECs [1]; [12]): 100 µM
- activity at 0.01 µM (HUVECs [2]; [13]): 100%
- activity at 0.01 µM (HUVECs [2]; [14]): 98.8%
- activity at 0.01 µM (HUVECs [2]; [15]): 108%
- activity at 0.01 µM (HUVECs [2]; [16]): 108%
- activity at 0.1 µM (HUVECs [2]; [13]): 99.3%
- activity at 0.1 µM (HUVECs [2]; [14]): 101%
- activity at 0.1 µM (HUVECs [2]; [15]): 147%
- activity at 0.1 µM (HUVECs [2]; [16]): 147%
- activity at 1 µM (HUVECs [2]; [13]): 97.8%
- activity at 1 µM (HUVECs [2]; [14]): 116%
- activity at 1 µM (HUVECs [2]; [15]): 132%
- activity at 1 µM (HUVECs [2]; [16]): 128%
- activity at 10 µM (HUVECs [2]; [13]): 90.4%
- activity at 10 µM (HUVECs [2]; [14]): 99.7%
- activity at 10 µM (HUVECs [2]; [15]): 90.3%
- activity at 10 µM (HUVECs [2]; [16]): 93.2%
- activity at 100 µM (HUVECs [2]; [13]): 74.5%
- activity at 100 µM (HUVECs [2]; [14]): 59.6%
- activity at 100 µM (HUVECs [2]; [15]): 61.5%
- activity at 100 µM (HUVECs [2]; [16]): 62%
- minimal effective concentration (HUVECs [2]; read-out: huvec.mtl.18hr POD): 10.7 µM
- minimal effective concentration (HUVECs [2]; read-out: huvec.tlps.18hr POD): 37.4 µM
- minimal effective concentration (HUVECs [2]; read-out: huvec.tta.18hr POD): 100 µM
- minimal effective concentration (HUVECs [2]; read-out: huvec.ttl.18hr POD): 100 µM
